In one experiment the test system is U−2 OS cells. Description: MTT cell proliferation assay, U−2 OS cells. It counts as cell-based. The settings on record: Homo sapiens, U2OS, MTT. The method, then:
(§1) The effects of tanshinones (DS−1 to DS−5) on the proliferation of U−2 OS cells, HeLa cells, and NRK−49F cells were measured by the classical MTT method with minor modifications as follows. Cells were seeded at 5000 per well in 96-well plates, with each group being repeated in 5 wells, and were incubated for 12 h. DS−1 to DS−5 were added at gradient concentrations, then incubated for 24 and 48 h, respectively. Then, 20 μL MTT solution (solved in PBS, 5 mg/mL) was added to every well, and the cells were further incubated at 37 °C for 4 h until a purple precipitate was visible. The plate was centrifuged at 1000 rpm for 1 min; the supernatant was suctioned, and 150 μL of DMSO was added per well; the plate was shaken on a shaker protected from light for 15 min. We placed the plate in an enzyme marker and measured the absorbance values at a 490 nm wavelength.

For the next experiment, the system named is NRK−49F cells. Description: MTT cell proliferation assay, NRK−49F cells. The experiment is classed as cell-based, rat. The settings on record: MTT, 24 h, normal rat kidney cells, read-out: IC50 NRK−49F cells (24 h). As for the experimental part: as §1
(Tetrazolium dyes change colour on reduction, which living cells bring about.)

In a further experiment the test system is HeLa cells. Description: MTT cell proliferation assay, HeLa cells. It counts as cell-based. The settings on record: Homo sapiens, MTT, 24 h, read-out: IC50 HeLa cells (24 h). As for the experimental part: as §1
Where [1] appears, read: 24 h, read-out: IC50 U−2 OS cells (24 h).
The mark [2] stands for this setting: 48 h, read-out: IC50 U−2 OS cells (48 h).

Molecules are shown by their SMILES. Like-named read-outs stand apart in the source and are kept apart here.

`C[C@H]1COC2=C1C(=O)C(=O)c1c2ccc2c1CCCC2(C)C` [DS−2, Cryptotanshinone]: the IC50 (as a rule, the concentration that inhibits the measured activity by half) worked out at 47.8 ± 4.96 µM in the experiment with U−2 OS cells (setting [1]), 25.6 ± 0.81 µM with U−2 OS cells (setting [2]), 35.4 ± 3.25 µM in the experiment on NRK−49F cells and 52.1 ± 3.2 µM with HeLa cells.

For the compound `CC1=CCCc2c1ccc1c2C(=O)C(=O)c2c(C)coc2-1` [DS−4, 1,2-Dihydrotanshinquinone], the IC50 with U−2 OS cells (setting [1]) amounted to 22.1 ± 1.31 µM; with U−2 OS cells (setting [2]), 5.89 ± 0.4 µM; in the experiment with NRK−49F cells, 31.8 ± 1.59 µM; with HeLa cells, 25 ± 2.03 µM.

On to `Cc1coc2c1C(=O)C(=O)c1c-2ccc2c1CCCC2(C)C` [DS−5, Tanshinone IIA], for which the IC50 in the experiment with U−2 OS cells (setting [1]) was 25.4 ± 1.43 µM; with U−2 OS cells (setting [2]), 5.91 ± 1.08 µM; with NRK−49F cells it was over 50 µM; in the experiment on HeLa cells it was 32.1 ± 1.94 µM.

As for `Cc1coc2c1C(=O)C(=O)c1c-2ccc2c(C)cccc12` [DS−3, Tanshinone I], the half-inhibitory concentration (IC50) was determined as 17.8 ± 1.03 µM in the experiment with U−2 OS cells (setting [1]), 4.54 ± 1 µM with U−2 OS cells (setting [2]), 108 ± 28.9 µM in the experiment with NRK−49F cells and 20.9 ± 2.81 µM in the experiment on HeLa cells.

(Values after publication PMC9231138, “Dihydrotanshinone I Enhances Cell Adhesion and Inhibits Cell Migration in Osteosarcoma U−2 OS Cells through CD44 and Chemokine Signaling” (Molecules, 2022).)
